Data reported in patent US20200289474A1, “METHODS OF TREATING PAIN WITH A THIAZOLINE ANTI-HYPERALGESIC” (priority 2019, published 2020).

What was measured:
Assay type in all cases: in vivo, rat
[1] = system: STZ-induced mechanical allodynia; experiment: STZ-induced diabetic rats, subsequent study
Method: (§1) Experiments were conducted to determine the effect of Compound 1 in streptozotocin (STZ)-induced diabetic rats. In the first experiment, after obtaining mechanical threshold baselines, STZ (50 mg/kg IV) was administered (Day −7). Two days later, blood glucose levels were measured and animals that were hyperglycemic (>250 mg/dL) continued in the study. On Day 0 the baseline for mechanical thresholds prior to dosing with test articles was established for the rats. Compound 1 (10, 30, and 100 mg/kg PO), gabapentin (100 mg/kg PO) or vehicle was then administered daily for 5 days. On Day 0 mechanical thresholds were obtained at 1, 3, and 6 h post-dose. On Day 1 mechanical thresholds were measured immediately prior to dosing and then 3 h post-dose. The same regimen was followed on Day 3.
In a subsequent study, the same STZ paradigm was followed. However, in addition to the 100 mg/kg Compound 1 group, two additional cohorts received the Compound 1 100 mg/kg dose split into two or three doses per day with 50 mg/kg BID and 33 mg/kg TID. In addition to the gabapentin (100 mg/kg PO) group, a separate cohort received duloxetine (30 mg/kg PO). Additionally, in this study mechanical threshold testing was implemented every day immediately prior to dosing and 2 h post-dose for 7 days.

[2] = system: STZ-induced mechanical allodynia; experiment: streptozotocin (STZ)-induced diabetic rats, first experiment; conditions: gabapentin 100 mg/kg PO daily; 1 h post-dose Day 0 and all time points thereafter
Method: FIG. 14 illustrates non-limiting reversal of mechanical hypersensitivity by Compound 1 in a diabetic neuropathy model, in accordance with various embodiments. Streptozotocin (STZ) destroys insulin-producing cells and generates a diabetic phenotype in […]. Animals were dosed with STZ on day −7. By day 0 animals are hyperglycemic and hyperalgesic (day 0 BL).
as §1

[3] = system: incision-induced hyperalgesia; experiment: Brennan protocol, treatment paradigm (established hyperalgesia); conditions: morphine 3 mg/kg SC
Source text: Two incisional pain models were used to assess Compound 1 effects on hyperalgesia. The first model is referred to as the Brennan model in which, under anesthesia, a 1 cm longitudinal incision to the skin and underlying fascia of a rat hindpaw is made. The second is a variation but is a more invasive procedure in which the skin and muscle are spread apart using forceps which creates a longer-lasting hypersensitivity.
Using the Brennan protocol and a treatment paradigm in rat, Compound 1 (10 and 30 mg/kg PO), morphine (3 mg/kg SC) or vehicle were administered daily at 24 h post-incision, and again at 48 and 72 h post-incision. Mechanical thresholds were obtained at 1 h and 2 h post-dose in all cohorts on all days.

`CNCC[C@H](Oc1cccc2ccccc12)c1cccs1` [duloxetine, reference compound] was tested, and the reversal of allodynia ([1]; duloxetine 30 mg/kg PO) was “required successive doses for appreciable activity”.

For `NCC1(CC(=O)O)CCCCC1` [gabapentin, reference compound], the reversal of allodynia ([1]; gabapentin 100 mg/kg PO, throughout the study) was “robustly reversed the allodynia” and the “reversal of allodynia (mechanical thresholds)” value [2] was “significant reversal of allodynia”.

With `CN1CC[C@]23c4c5ccc(O)c4O[C@H]2[C@@H](O)C=C[C@H]3[C@H]1C5` [morphine] the mechanical threshold ([3]; Day 1, 1 h post-dose (baseline 35 g)) was 45 g, the analgesic effect ([3]; Day 1, 2 h post-dose) was “this effect waned” and the hyperalgesia ([3]; Day 2, 1 h) was “not hyperalgesic”. The hyperalgesia ([3]; Day 2, 2 h) was “mild hyperalgesia” and the mechanical threshold ([3]; Day 2 prior to dosing) was less than 15 g.
